Where “and” joins values, the source holds several entries; their conditions need not be identical. Equal entries are not always repeated. Where two headings read alike, the source gives them in different places.
Experiments:
[1] = system: Hsp90 in 3T3 lysate; assay: FP competition in whole-cell lysate; format: binding, mouse; settings: quiescent 3T3 cells, FP
Procedure: After vortexing, cell lysate was frozen at −80 °C for 2 h, followed by thawing on ice. The vortex-freeze-thaw step was repeated. […] Aliquots were thawed immediately prior to use.

[2] = target: human Grp94 NBD (Homo sapiens, UniProt P14625); assay: biochemical
[3] = target: T1, Hsp90 in C. albicans (SC5314) lysate (Candida albicans, UniProt P46598); assay: biochemical; format: binding; settings: for FP signal: raw
T1 construct: endogenous in cells; host or cells: C. albicans SC5314 whole-cell lysate

[4] = target: T2, C. albicans Hsp90 NBD (Candida albicans, UniProt P46598); assay: biochemical; format: binding
T2 construct: C. albicans Hsp90 (E7-K218); made in house; host or cells: E. coli Rosetta2

[5] = system: Hsp90 in HEPG2 lysate; settings: for FP signal (raw) / FP signal: HepG2 lysate; for FP signal: raw
[6] = SC5314 lysate, 0.457 nM compound
[7] = SC5314 lysate, 1.372 nM compound
[8] = SC5314 lysate, 4.115 nM compound
[9] = SC5314 lysate, 12.346 nM compound
[10] = SC5314 lysate, 37.037 nM compound
[11] = SC5314 lysate, 111.111 nM compound
[12] = SC5314 lysate, 333.333 nM compound
[13] = SC5314 lysate, 1000 nM compound
[14] = SC5314 lysate, 3000 nM compound

T1 sequence (P46598 whole entry): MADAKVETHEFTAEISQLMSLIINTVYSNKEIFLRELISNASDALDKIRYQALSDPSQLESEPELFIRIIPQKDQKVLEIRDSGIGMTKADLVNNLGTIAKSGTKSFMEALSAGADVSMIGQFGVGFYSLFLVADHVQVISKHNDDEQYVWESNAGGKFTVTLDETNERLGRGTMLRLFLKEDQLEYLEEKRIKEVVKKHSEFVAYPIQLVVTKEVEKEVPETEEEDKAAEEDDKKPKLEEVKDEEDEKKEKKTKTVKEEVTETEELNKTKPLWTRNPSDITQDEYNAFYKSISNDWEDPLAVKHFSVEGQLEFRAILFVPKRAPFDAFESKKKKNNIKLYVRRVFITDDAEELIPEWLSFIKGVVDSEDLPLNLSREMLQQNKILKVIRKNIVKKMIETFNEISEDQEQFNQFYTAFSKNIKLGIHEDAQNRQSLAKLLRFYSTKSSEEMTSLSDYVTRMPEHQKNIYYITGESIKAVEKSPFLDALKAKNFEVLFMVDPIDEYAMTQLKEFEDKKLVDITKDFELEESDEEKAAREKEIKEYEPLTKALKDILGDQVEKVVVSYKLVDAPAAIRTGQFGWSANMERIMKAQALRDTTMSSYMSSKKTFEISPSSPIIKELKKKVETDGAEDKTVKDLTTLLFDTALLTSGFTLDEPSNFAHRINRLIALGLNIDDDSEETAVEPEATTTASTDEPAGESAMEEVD
T2 sequence (P46598 7-218): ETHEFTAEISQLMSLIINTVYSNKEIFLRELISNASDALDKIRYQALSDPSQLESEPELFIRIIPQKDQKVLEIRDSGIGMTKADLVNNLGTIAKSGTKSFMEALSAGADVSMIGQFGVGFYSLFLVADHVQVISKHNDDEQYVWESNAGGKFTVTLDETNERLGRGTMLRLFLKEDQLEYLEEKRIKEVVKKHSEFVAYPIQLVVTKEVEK
human Grp94 NBD, sequence (P14625 63-337): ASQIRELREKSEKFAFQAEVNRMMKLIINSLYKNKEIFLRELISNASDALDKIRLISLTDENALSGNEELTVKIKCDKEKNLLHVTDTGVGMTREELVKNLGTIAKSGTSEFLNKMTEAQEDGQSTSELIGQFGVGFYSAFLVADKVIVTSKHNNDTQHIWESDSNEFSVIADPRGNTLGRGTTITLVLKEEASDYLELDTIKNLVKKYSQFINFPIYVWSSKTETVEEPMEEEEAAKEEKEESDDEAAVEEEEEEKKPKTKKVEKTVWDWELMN

## COc1ccc(CON=C2C=CC=CC3OC3CC(C)OC(=O)c3c(O)cc(O)cc3C2)cc1 (stereo not shown) [CMLD013075]
[1]
  relative binding affinity in 3T3 lysate vs HEPG2 lysate: lower in 3T3 lysate than HEPG2 lysate
[2]; I50, single experiments Expt 1-3
  IC50: 429 nM and 490 nM and 261 nM
[2]; IC50 (Equation 16), corrected I50, single experiments, unit inferred
  IC50: 426 nM and 486 nM and 257 nM
[2]; Inhibitor Ki, single experiments Expt 1-3
  Ki: 43.6 nM and 48.9 nM and 26.4 nM
[2]; Ki, purified NBD, Cy3-GdA probe, mean (± SEM) of 3 experiments
  Ki: 39.6 nM
[3]; C. albicans SC5314 vs HEPG2 lysate, FP
  normalized fungal selectivity in lysates: 4.6 fold
[3]; C. albicans vs HEPG2 and 3T3 lysates, FP
  relative binding affinity in fungal vs mammalian lysates: higher
[3]; EC50, SC5314 lysate, not normalized, oxime panel experiment 220817
  EC50: 505 nM
[3]; EC50 relative to GdA, SC5314 lysate
  Ratio re. GdA: 29.6649
[3]; SC5314 lysate, 0.457 nM
  FP signal (raw): 200
[3]; [6]
  FP signal relative to 0 nM: 0.9709
  FP signal: 200
[3]; SC5314 lysate, 1.372 nM
  FP signal (raw): 200
[3]; [7]
  FP signal relative to 0 nM: 0.9709
  FP signal: 200
[3]; SC5314 lysate, 4.115 nM
  FP signal (raw): 199
[3]; [8]
  FP signal relative to 0 nM: 0.966
  FP signal: 199
[3]; SC5314 lysate, 12.346 nM
  FP signal (raw): 199
[3]; [9]
  FP signal relative to 0 nM: 0.966
  FP signal: 199
[3]; SC5314 lysate, 37.037 nM
  FP signal (raw): 196
[3]; [10]
  FP signal relative to 0 nM: 0.9515
  FP signal: 196
[3]; SC5314 lysate, 111.111 nM
  FP signal (raw): 182
[3]; [11]
  FP signal relative to 0 nM: 0.8835
  FP signal: 182
[3]; SC5314 lysate, 333.333 nM
  FP signal (raw): 146
[3]; [12]
  FP signal relative to 0 nM: 0.7087
  FP signal: 146
[3]; SC5314 lysate, 1000 nM
  FP signal (raw): 69
[3]; [13]
  FP signal relative to 0 nM: 0.335
  FP signal: 69
[3]; SC5314 lysate, 3000 nM
  FP signal (raw): 40
[3]; [14]
  FP signal relative to 0 nM: 0.1942
  FP signal: 40
[3]; ratio of GdA-normalized EC50s, human over fungal lysate
  HepG2/SC5314: 4.5595
[3]; ratio of GdA-relative EC50 ratios, HepG2 over SC5314
  HepG2/SC5314: 4.5595
[4]; corrected I50, single experiments, unit inferred, read-out: IC50 (Equation 16)
  IC50: 77.3 nM and 78.8 nM and 44 nM
[4]; purified NBD, Cy3-GdA probe, mean (± SEM) of 3 experiments, read-out: Ki
  Ki: 7.7 nM
[4]; purified NBDs, FP
  selectivity for fungal Hsp90 NBD over human Grp94 NBD: ~ 5 fold and 5 fold
  selectivity for fungal Hsp90 NBD over human Hsp90 NBD: ~ 28 fold and > 25 fold
[4]; single experiments Expt 1-3, read-out: I50
  IC50: 82.3 nM and 83.8 nM and 47.8 nM
[4]; single experiments Expt 1-3, read-out: Inhibitor Ki
  Ki: 8.8 nM (2×) and 5.5 nM
[5]; EC50 / EC50 of GdA in HepG2 lysate
  Ratio rel. GdA (HepG2): 135.257
[5]; EC50 relative to GdA, HEPG2 lysate
  Ratio rel. GdA (HepG2): 135.257
[5]; HEPG2 lysate, log concentration 0.137354 (1.372 nM)
  FP signal, Fxn Control: 0.9857
[5]; HEPG2 lysate, log concentration 0.61437 (4.115 nM)
  FP signal, Fxn Control: 0.9905
[5]; HEPG2 lysate, log concentration 1.09153 (12.346 nM)
  FP signal, Fxn Control: 1
[5]; HEPG2 lysate, log concentration 1.56864 (37.037 nM)
  FP signal, Fxn Control: 1.005
[5]; HEPG2 lysate, log concentration 2.04576 (111.111 nM)
  FP signal, Fxn Control: 0.9905
[5]; HEPG2 lysate, log concentration 2.52288 (333.333 nM)
  FP signal, Fxn Control: 0.9762
[5]; HEPG2 lysate, log concentration 3 (1000 nM)
  FP signal, Fxn Control: 0.8333
[5]; HEPG2 lysate, log concentration 3.47712 (3000 nM)
  FP signal, Fxn Control: 0.5286
[5]; HEPG2 lysate, log concentration -0.340084 (0.457 nM)
  FP signal, Fxn Control: 0.9857
[5]; 0.457 nM
  FP signal (raw): 207
[5]; 0.457 nM compound
  FP signal: 207
[5]; 1.372 nM
  FP signal (raw): 207
[5]; 1.372 nM compound
  FP signal: 207
[5]; 4.115 nM
  FP signal (raw): 208
[5]; 4.115 nM compound
  FP signal: 208
[5]; 12.346 nM
  FP signal (raw): 210
[5]; 12.346 nM compound
  FP signal: 210
[5]; 37.037 nM
  FP signal (raw): 211
[5]; 37.037 nM compound
  FP signal: 211
[5]; 111.111 nM
  FP signal (raw): 208
[5]; 111.111 nM compound
  FP signal: 208
[5]; 333.333 nM
  FP signal (raw): 205
[5]; 333.333 nM compound
  FP signal: 205
[5]; 1000 nM
  FP signal (raw): 175
[5]; 1000 nM compound
  FP signal: 175
[5]; 3000 nM
  FP signal (raw): 111
[5]; 3000 nM compound
  FP signal: 111

— publication PMC6345968, “Structural basis for species-selective targeting of Hsp90 in a pathogenic fungus” (Nature Communications, 2019)
